“And” between values parts separate entries of the source, which are not always exact repeats. Equal entries are not always repeated. Toxic doses and inconclusive results are not listed. The calls were made as follows: active = survival T/C of 150% or more; inactive = T/C below 125% in these data. Square brackets hold non-standard residues; d marks the D form. Peptide text beside a SMILES is read from it. ξ: configuration not given here. ξhCys = NC(CCS)C(=O)O
Tested on: P388 leukemia ip, CD2F1 mice, survival T/C
Experiment: NCI In Vivo Anticancer Drug Screen. Data for tumor model P388 Leukemia (intraperitoneal) in CD2F1 (CDF1) mice
Conditions: endpoint: median survival time, higher = longer survival
In short: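 Mice carrying the transplanted tumor received test compound or vehicle. Survival was recorded in each group, and the value is the treated-group measurement divided by that of the vehicle-treated control group.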

[1] = dose: 60.0 mg/kg/injection, schedule: Q01DX005 (ip), vehicle: saline with Tween-80
[2] = dose: 120.0 mg/kg/injection, schedule: Q01DX005 (ip), vehicle: saline with Tween-80
[3] = dose: 240.0 mg/kg/injection, schedule: Q01DX005 (ip), vehicle: saline with Tween-80
[4] = dose: 50.0 mg/kg/injection, schedule: Q01DX005 (ip), vehicle: saline with Tween-80
[5] = dose: 100.0 mg/kg/injection, schedule: Q01DX005 (ip), vehicle: saline with Tween-80
[6] = dose: 200.0 mg/kg/injection, schedule: Q01DX005 (ip), vehicle: saline with Tween-80
[7] = dose: 25.0 mg/kg/injection, schedule: Q01DX001 (ip), vehicle: saline + alcohol
[8] = dose: 50.0 mg/kg/injection, schedule: Q01DX009 (ip), vehicle: saline with Tween-80
[9] = dose: 100.0 mg/kg/injection, schedule: Q01DX009 (ip), vehicle: saline with Tween-80
[10] = dose: 200.0 mg/kg/injection, schedule: Q01DX009 (ip), vehicle: saline with Tween-80
[11] = dose: 100.0 mg/kg/injection, schedule: Q04DX002 (ip), vehicle: saline with Tween-80
[12] = dose: 200.0 mg/kg/injection, schedule: Q04DX002 (ip), vehicle: saline with Tween-80
[13] = dose: 400.0 mg/kg/injection, schedule: Q04DX002 (ip), vehicle: saline with Tween-80
[14] = dose: 25.0 mg/kg/injection, schedule: Q01DX005 (ip), vehicle: saline with Tween-80
[15] = dose: 50.0 mg/kg/injection, schedule: Q01DX005 (ip), vehicle: Klucel (hydroxypropylcellulose) (HPC)
[16] = dose: 100.0 mg/kg/injection, schedule: Q01DX005 (ip), vehicle: Klucel (hydroxypropylcellulose) (HPC)

Measured: T/C

CCN=NNc1ccc(C#N)cc1
inactive: dose: 6.25 mg/kg/injection, schedule: Q01DX009 (ip), vehicle: distilled water + Tween-80 104 % of control | dose: 12.5 mg/kg/injection, schedule: Q01DX009 (ip), vehicle: distilled water + Tween-80 109 % of control and 91 % of control | dose: 25.0 mg/kg/injection, schedule: Q01DX009 (ip), vehicle: distilled water + Tween-80 119 % of control and 97 % of control | dose: 50.0 mg/kg/injection, schedule: Q01DX009 (ip), vehicle: distilled water + Tween-80 100 % of control and 123 % of control | dose: 100.0 mg/kg/injection, schedule: Q01DX009 (ip), vehicle: distilled water + Tween-80 106 % of control

CSc1nc2c(nnn2C2OC(CO)C(O)C(O)C2O)c(=O)[nH]1 (centres undefined)
inactive: [1] 100 % of control | [2] 97 % of control | [3] 102 % of control

Cc1[nH]c2c(ccc3c2ccc2c(=O)c(C)c(C)[nH]c23)c(=O)c1C
inactive: [4] 95 % of control | [5] 96 % of control | [6] 95 % of control

O=C(CC[N+](=O)[O-])OCC1OC(OC(=O)CC[N+](=O)[O-])C(O)C(O)C1O (centres undefined)
inactive: dose: 12.5 mg/kg/injection, schedule: Q01DX005 (ip), vehicle: water 98 % of control | [7] 102 % of control | dose: 25.0 mg/kg/injection, schedule: Q01DX005 (ip), vehicle: water 104 % of control | dose: 50.0 mg/kg/injection, schedule: Q01DX001 (ip), vehicle: saline + alcohol 96 % of control | dose: 50.0 mg/kg/injection, schedule: Q01DX005 (ip), vehicle: water 97 % of control | dose: 100.0 mg/kg/injection, schedule: Q01DX001 (ip), vehicle: saline + alcohol 105 % of control | dose: 100.0 mg/kg/injection, schedule: Q01DX005 (ip), vehicle: water 95 % of control | dose: 200.0 mg/kg/injection, schedule: Q01DX005 (ip), vehicle: water 100 % of control

O=CC1N=C1c1ccccc1 (centres undefined)
inactive: dose: 100.0 mg/kg/injection, schedule: Q01DX001 (ip), vehicle: Klucel (hydroxypropylcellulose) (HPC) 88 % of control | dose: 200.0 mg/kg/injection, schedule: Q01DX001 (ip), vehicle: Klucel (hydroxypropylcellulose) (HPC) 90 % of control

CCSCCC(NC(=O)CN)C(=O)O (centres undefined) (H-Gly-[ξhCys](Et)-OH)
inactive: dose: 50.0 mg/kg/injection, schedule: Q01DX009 (ip), vehicle: saline 112 % of control | dose: 100.0 mg/kg/injection, schedule: Q01DX009 (ip), vehicle: saline 94 % of control

O=c1[nH]c2c([N+](=O)[O-])cc(Cl)cc2nc1/C=C(\O)c1ccco1
inactive: [1] 101 % of control | [2] 89 % of control | [3] 92 % of control

O=C(O)C1CCCN1C(=O)c1ccc(Cl)cc1 (centres undefined)
inactive: dose: 12.5 mg/kg/injection, schedule: Q01DX005 (ip), vehicle: distilled water + Tween-80 99 % of control | dose: 25.0 mg/kg/injection, schedule: Q01DX005 (ip), vehicle: distilled water + Tween-80 101 % of control | dose: 50.0 mg/kg/injection, schedule: Q01DX005 (ip), vehicle: distilled water + Tween-80 97 % of control | dose: 100.0 mg/kg/injection, schedule: Q01DX005 (ip), vehicle: distilled water + Tween-80 100 % of control | dose: 200.0 mg/kg/injection, schedule: Q01DX005 (ip), vehicle: distilled water + Tween-80 104 % of control

COC(CCC1CO1)OC (centres undefined)
inactive: [8] 100 % of control | [9] 96 % of control | [10] 99 % of control

CCO/C(C)=C(\C#N)C(Cl)=Nc1ccc(OC)cc1
inactive: [11] 108 % of control | [12] 101 % of control | [13] 100 % of control

CC1C2=C(CN(C)CC2)c2ccccc21 (centres undefined)
inactive: dose: 12.5 mg/kg/injection, schedule: Q01DX005 (ip), vehicle: saline with Tween-80 100 % of control | [14] 96 % of control | [4] 105 % of control

O=C1NC(=O)N2CCCOC2C1c1ccccc1 (centres undefined)
inactive: dose: 50.0 mg/kg/injection, schedule: Q01DX009 (ip), vehicle: Klucel (hydroxypropylcellulose) (HPC) 103 % of control | dose: 100.0 mg/kg/injection, schedule: Q01DX009 (ip), vehicle: Klucel (hydroxypropylcellulose) (HPC) 99 % of control | dose: 200.0 mg/kg/injection, schedule: Q01DX009 (ip), vehicle: Klucel (hydroxypropylcellulose) (HPC) 99 % of control

CCCCN(CCCC)CCCC(C(C)=O)C(=O)OCC (centres undefined)
inactive: [15] 102 % of control | [16] 104 % of control

Cn1c(=O)c2cc(C(N)=O)c(=O)oc2n(C)c1=O
inactive: dose: 62.5 mg/kg/injection, schedule: Q01DX001 (ip), vehicle: Klucel (hydroxypropylcellulose) (HPC) 109 % of control | dose: 125.0 mg/kg/injection, schedule: Q01DX001 (ip), vehicle: Klucel (hydroxypropylcellulose) (HPC) 110 % of control | dose: 250.0 mg/kg/injection, schedule: Q01DX001 (ip), vehicle: Klucel (hydroxypropylcellulose) (HPC) 114 % of control

COC(=O)C12CC(CCC1C13CCC4(OCCO4)C(C)(C)C1C(=O)OC3)C(C)C2O (centres undefined)
inactive: [11] 97 % of control | [12] 94 % of control | [13] 100 % of control

CCOC(=O)C(Cc1ccc(O)cc1)Nc1nc2ccccc2o1 (centres undefined)
inactive: [8] 95 % of control | [9] 105 % of control | [10] 103 % of control | dose: 400.0 mg/kg/injection, schedule: Q01DX009 (ip), vehicle: saline with Tween-80 96 % of control

CC(C)(C)OC1COCCO1 (centres undefined)
inactive: [1] 102 % of control | [2] 99 % of control | [3] 93 % of control

NCC12CC3CC(CC(C3)C1)C2
inactive: dose: 12.5 mg/kg/injection, schedule: Q01DX009 (ip), vehicle: saline with Tween-80 103 % of control | dose: 25.0 mg/kg/injection, schedule: Q01DX009 (ip), vehicle: saline with Tween-80 102 % of control | [8] 100 % of control and 102 % of control

O=C(O)C1C2CC3C(OC(=O)C31)C2Br (centres undefined)
inactive: [1] 100 % of control | [2] 97 % of control | [3] 96 % of control

C/C1=C/C2OC(=O)C3(C)C2C(CC2(C)OC1=CC2=O)OC3(O)C(C)C (centres undefined)
inactive: dose: 10.0 mg/kg/injection, schedule: Q01DX005 (ip), vehicle: saline + alcohol 100 % of control | dose: 20.0 mg/kg/injection, schedule: Q01DX005 (ip), vehicle: saline + alcohol 102 % of control | dose: 40.0 mg/kg/injection, schedule: Q01DX005 (ip), vehicle: saline + alcohol 99 % of control | dose: 80.0 mg/kg/injection, schedule: Q01DX005 (ip), vehicle: saline + alcohol 109 % of control

CC1=CS(=O)c2ccccc2N1C (centres undefined)
inactive: dose: 50.0 mg/kg/injection, schedule: Q04DX002 (ip), vehicle: Klucel (hydroxypropylcellulose) (HPC) 97 % of control | dose: 100.0 mg/kg/injection, schedule: Q04DX002 (ip), vehicle: Klucel (hydroxypropylcellulose) (HPC) 100 % of control | dose: 100.0 mg/kg/injection, schedule: Q04DX002 (ip), vehicle: suspension in saline 109 % of control | dose: 200.0 mg/kg/injection, schedule: Q04DX002 (ip), vehicle: Klucel (hydroxypropylcellulose) (HPC) 101 % of control | dose: 200.0 mg/kg/injection, schedule: Q04DX002 (ip), vehicle: suspension in saline 124 % of control | dose: 400.0 mg/kg/injection, schedule: Q04DX002 (ip), vehicle: Klucel (hydroxypropylcellulose) (HPC) 108 % of control | dose: 400.0 mg/kg/injection, schedule: Q04DX002 (ip), vehicle: suspension in saline 117 % of control

CC1(C)c2ccccc2C(=O)c2ccccc21
inactive: [4] 103 % of control | [5] 100 % of control | [6] 103 % of control

CCCCN(C(=O)C(C)C)c1nc(C)co1
inactive: [8] 112 % of control | [9] 118 % of control | [10] 96 % of control

CCCCOP(O)(=S)OCCCC.[Er]
inactive: [11] 96 % of control | [12] 101 % of control | [13] 95 % of control

NCCn1c(-c2ccccc2)nc2ccccc2c1=O
inactive: [15] 100 % of control | [16] 97 % of control | dose: 200.0 mg/kg/injection, schedule: Q01DX005 (ip), vehicle: Klucel (hydroxypropylcellulose) (HPC) 109 % of control

CCN(CC)CCNC1CC2CCC1(C)C2(C)C (centres undefined)
inactive: [14] 98 % of control | [4] 91 % of control | [5] 89 % of control

COc1ccc(CC2c3cc4c(cc3CCN2C)OCO4)c(/C=C\c2ccccc2)c1OC (centres undefined)
inactive: dose: 6.25 mg/kg/injection, schedule: Q01DX001 (ip), vehicle: saline + alcohol 92 % of control | dose: 12.5 mg/kg/injection, schedule: Q01DX001 (ip), vehicle: saline + alcohol 93 % of control | [7] 90 % of control | dose: 200.0 mg/kg/injection, schedule: Q01DX001 (ip), vehicle: saline + alcohol 87 % of control

Source: PubChem BioAssay AID330 (DTP/NCI, 2004)
